In ChEMBL document CHEMBL1201862, “PubChem BioAssay data set” (2004):
“And” between values parts separate entries of the source, which are not always exact repeats. Equal values may be shown once.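 All cell lines were grown in 96-well plates and treated with compound for 48 hours. GI50 = concentration required for 50% inhibition of growth.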 The source made the active and inactive calls. No stated cut-off is given here; in the data, active = GI50 up to about 1.1 µM and inactive = higher.

Experiments:
Test in all cases: inhibition of tumour cell growth, NCI panel, 48 h
RXF 393 = test system: RXF 393
NCI-H226 = test system: NCI-H226
U-251 = test system: U-251
HT-29 = test system: HT-29
HCC 2998 = test system: HCC 2998
SR = test system: SR
Malme-3M = test system: Malme-3M
SF-268 = test system: SF-268
EKVX = test system: EKVX
PC-3 = test system: PC-3
HCT-116 = test system: HCT-116
OVCAR-8 = test system: OVCAR-8
HL-60 = test system: HL-60
UO-31 = test system: UO-31
COLO 205 = test system: COLO 205
MOLT-4 = test system: MOLT-4

SMILES | GI50 (RXF 393) | GI50 (NCI-H226) | GI50 (U-251) | GI50 (HT-29) | GI50 (HCC 2998) | GI50 (SR) | GI50 (Malme-3M) | GI50 (SF-268) | GI50 (EKVX) | GI50 (PC-3) | GI50 (HCT-116) | GI50 (OVCAR-8) | GI50 (HL-60) | GI50 (UO-31) | GI50 (COLO 205) | GI50 (MOLT-4)
Nc1ccccc1.O=P(O)(OP(=O)(O)c1ccccc1)c1ccccc1 | > 100 µM (inactive) | > 100 µM (inactive) | > 100 µM (inactive) | > 100 µM (inactive) | > 100 µM (inactive) | > 100 µM (inactive) | > 100 µM (inactive) | > 100 µM (inactive) | > 100 µM (inactive) | > 100 µM (inactive) | > 100 µM (inactive) | > 100 µM (inactive) | 65.3 µM (inactive) | > 100 µM (inactive) | > 100 µM (inactive) | 
Cc1[nH]n(-c2ccc(S(=O)(=O)O)cc2)c(=O)c1/N=N/c1ccccc1 | > 100 µM (inactive) |  | > 100 µM (inactive) | > 100 µM (inactive) | 8.04 µM (inactive) | > 100 µM (inactive) | 51.6 µM (inactive) | 50.7 µM (inactive) | > 100 µM (inactive) | > 100 µM (inactive) | > 100 µM (inactive) | > 100 µM (inactive) |  | > 100 µM (inactive) | > 100 µM (inactive) | > 100 µM (inactive)
C[N+]1(CCC[N+]2(C)CC3C4C=CC(CC4)C3C2)CCOCC1 (stereo unspecified) | > 100 µM (inactive) | > 100 µM (inactive) | > 100 µM (inactive) | > 100 µM (inactive) | 86.7 µM (inactive) | > 100 µM (inactive) | > 100 µM (inactive) | > 100 µM (inactive) | > 100 µM (inactive) | > 100 µM (inactive) | > 100 µM (inactive) | > 100 µM (inactive) | > 100 µM (inactive) | > 100 µM (inactive) | > 100 µM (inactive) | > 100 µM (inactive)
COc1cccc(C2CC(C)(N3CCCC3)Oc3cc4c(cc32)OCO4)c1O (stereo unspecified) | 26.7 µM (inactive) | 19.1 µM (inactive) | 25.1 µM (inactive) | 19.1 µM (inactive) | 23 µM (inactive) | 3.81 µM (inactive) | 24.8 µM (inactive) | 30.3 µM (inactive) | 63.2 µM (inactive) | 10.6 µM (inactive) | 13.2 µM (inactive) | 30.2 µM (inactive) | 15.4 µM (inactive) | 32.5 µM (inactive) | 19.1 µM (inactive) | 21.8 µM (inactive)
Cc1cc(OCc2nnc3n2N=C(c2cc(F)c(Cl)cc2Cl)/C(=C/c2ccc(Cl)cc2)S3)ccc1Cl | 17 µM (inactive) | 46 µM (inactive) | 18.3 µM (inactive) | 16.7 µM (inactive) | 19.6 µM (inactive) | 7.96 µM (inactive) |  | 22.8 µM (inactive) | 39.4 µM (inactive) | 21.4 µM (inactive) | 12.8 µM (inactive) | 18.8 µM (inactive) | 1.91 µM (inactive) | 27.5 µM (inactive) |  | 0.337 µM (active)
C=C(C(=O)O)[C@@H]1C[C@@H]2O[C@H]1[C@@H](O)[C@@H](C)CCCC(C)=CCC[C@@]2(C)O | > 100 µM (inactive) and > 89.1 µM (inactive) | > 100 µM (inactive) | > 100 µM (inactive) and 97.3 µM (inactive) |  | > 100 µM (inactive) | 49.1 µM (inactive) | > 100 µM (inactive) and > 72.9 µM (inactive) | > 100 µM (inactive) | > 100 µM (inactive) and > 94.4 µM (inactive) | > 100 µM (inactive) | 64.1 µM (inactive) and > 83.4 µM (inactive) | > 100 µM (inactive) |  | > 100 µM (inactive) and 69 µM (inactive) | > 100 µM (inactive) and 72.6 µM (inactive) | 
CC1(C)OC(=O)C(C#N)=C1C[n+]1ccccc1 | > 10 µM (inactive) | > 10 µM (inactive) | > 10 µM (inactive) | > 10 µM (inactive) | > 10 µM (inactive) | > 10 µM (inactive) | > 10 µM (inactive) | > 10 µM (inactive) | > 10 µM (inactive) | > 10 µM (inactive) |  | > 10 µM (inactive) | > 10 µM (inactive) | > 10 µM (inactive) | > 10 µM (inactive) | > 10 µM (inactive)
CN(C)c1ccc(C2CC(c3ccc4ccccc4c3O)=NN2c2ccc([N+](=O)[O-])cc2[N+](=O)[O-])cc1 (stereo unspecified) | 41.2 µM (inactive) | 89.5 µM (inactive) | 41.9 µM (inactive) | 39.4 µM (inactive) | 71 µM (inactive) | 12.6 µM (inactive) | 19.2 µM (inactive) | 98.4 µM (inactive) |  | 23.6 µM (inactive) | 37.5 µM (inactive) | 56 µM (inactive) |  | 27.4 µM (inactive) | 38.7 µM (inactive) | 22.8 µM (inactive)
O=C(O)c1ccc(OCc2nc3cc(C(F)(F)F)ccc3nc2-c2ccccc2)cc1 | 36.8 µM (inactive) | 91.4 µM (inactive) | 44.2 µM (inactive) | 32.1 µM (inactive) | 41.2 µM (inactive) | 11.5 µM (inactive) |  | 41.8 µM (inactive) | 55.7 µM (inactive) | 53.8 µM (inactive) | 36.9 µM (inactive) | 41.9 µM (inactive) | 40 µM (inactive) | 22 µM (inactive) | 19.8 µM (inactive) | 
